# Data: US10668033B2, “Modulators of the prostacyclin (PGI2) receptor useful for the treatment of disorders related thereto” (Arena Pharmaceuticals, Inc., priority 2008, dated 2020)
# Molecular target: human prostacyclin (PGI2) receptor (Homo sapiens (Human), UniProt P43119)
# Test: HTRF assay for direct cAMP measurement
# Type: cell-based
# Conditions: recombinant CHO-K1 cells stably transfected with human prostacyclin receptor; cAMP increase
# Description: Compounds were screened for agonists of the human prostacyclin (PGI2) receptor using the HTRF® assay for direct cAMP measurement (Gabriel et al., ASSAY and Drug Development Technologies, 1:291-303, 2003) and recombinant CHO-K1 cells stably transfected with human prostacyclin receptor. CHO-K1 cells were obtained from ATCC® (Manassas, Va.; Catalog # CCL-61). An agonist of the prostacyclin receptor was detected in HTRF® assay for direct cAMP measurement as a compound which increased cAMP concentration. HTRF® assay also was used to determine EC50 values for prostacyclin receptor agonists.
# The HTRF® assay kit was purchased from Cisbio-US, Inc. (Bedford, Mass.; Catalog #62AM4PEC). The HTRF® assay supported by the kit is a competitive immunoassay between endogenous cAMP produced by the CHO-K1 cells and tracer cAMP labeled with the dye d2. The tracer binding is visualized by a monoclonal anti-cAMP antibody labeled with Cryptate. The specific signal (i.e., fluorescence resonance energy transfer, FRET) is inversely proportional to the concentration of unlabeled cAMP in the standard or sample.
# The fluorescence ratio (665 nm/620 nm) of the standards (0.17 to 712 nM cAMP) included in the assay was calculated and used to generate a cAMP standard curve according to the kit manufacturer's instructions. The fluorescence ratio of the samples (test compound or compound buffer) was calculated and used to deduce respective cAMP concentrations by reference to the cAMP standard curve.
# The HTRF® assay was carried out using a two-step protocol essentially according to the kit manufacturer's instructions, in 20 μL total volume per well in 384-well plate format (ProxiPlates; PerkinElmer, Fremont, Calif.; catalog #6008280). To each of the experimental wells was transferred 3000 recombinant CHO-K1 cells in 5 μL assay buffer (phosphate buffered saline containing calcium chloride and magnesium chloride (Invitrogen, Carlsbad, Calif.; catalog #14040) supplemented with IBMX (100 μM) and rolipram (10 μM) (phosphodiesterase inhibitors; Sigma-Aldrich, St. Louis, Mo.; catalog #15879 and catalog # R6520, respectively) and 0.1% bovine serum albumin (BSA) fraction V (Sigma-Aldrich; catalog # A3059)), followed by test compound in 5 μL assay buffer or 5 μL assay buffer. The plate was then incubated at room temperature for 1 h. To each well was then added 5 μL cAMP-d2 conjugate in lysis buffer and 5 μL Cryptate conjugate in lysis buffer according to the kit manufacturer's instructions. The plate was then further incubated at room temperature for 1 h, after which the assay plate was read.
# The HTRF® readout was accomplished using a PHERAstar (BMG LABTECH Inc., Durham, N.C.) or EnVision™ (PerkinElmer, Fremont Calif.) microplate reader.
# Chain of human prostacyclin (PGI2) receptor (P43119 whole entry): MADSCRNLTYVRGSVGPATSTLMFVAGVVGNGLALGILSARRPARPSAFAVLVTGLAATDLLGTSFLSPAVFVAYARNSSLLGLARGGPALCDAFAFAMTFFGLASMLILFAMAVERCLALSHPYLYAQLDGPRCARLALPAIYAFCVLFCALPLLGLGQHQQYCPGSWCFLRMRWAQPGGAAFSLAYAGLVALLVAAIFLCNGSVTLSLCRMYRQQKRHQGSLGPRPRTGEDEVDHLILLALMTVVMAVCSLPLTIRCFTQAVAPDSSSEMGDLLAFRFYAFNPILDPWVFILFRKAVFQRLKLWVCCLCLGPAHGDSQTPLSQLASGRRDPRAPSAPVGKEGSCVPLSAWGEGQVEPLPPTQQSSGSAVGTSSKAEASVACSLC
row,Structure (SMILES),EC50 [nM]
1,"O=C(O)COC[C@H]1CC[C@H](CNC(=O)N(c2ccccc2)c2cccc(Cl)c2)CC1 [Compound 6, 2-(((1r,4r)-4-((3-(3-chlorophenyl)-3-phenylureido)methyl)cyclohexyl)methoxy)acetic acid]",61.1
2,"O=C(O)COC[C@H]1CC[C@@H](COC(=O)N(c2ccccc2)c2ccc(F)cc2)CC1 [Compound 35, 2-(((1s,4s)-4-(((4-fluorophenyl)(phenyl)carbamoyloxy)methyl)cyclohexyl)methoxy)acetic acid]",56.9
3,"COc1ccc(N(C(=O)OC[C@H]2CC[C@H](COCC(=O)O)CC2)c2cccc(F)c2)cc1 [Compound 55, 2-(((1r,4r)-4-(((3-fluorophenyl)(4-methoxyphenyl)carbamoyloxy)methyl)cyclohexyl)methoxy)acetic acid]",5.14
4,"Cc1ccc(N(C(=O)OC[C@H]2CC[C@H](COCC(=O)O)CC2)c2cccc(F)c2)s1 [Compound 71, 2-(((1r,4r)-4-(((3-fluorophenyl)(5-methylthiophen-2-yl)carbamoyloxy)methyl)cyclohexyl)methoxy)acetic acid]",19.1

# System: human PRP
# Test: Human platelet aggregation inhibition test
# Type: cell-based
# Conditions: ADP (1×10^−5 M) induced aggregation
# Procedure: Blood collected from healthy human volunteers in aqueous trisodium citrate solution was centrifuged at 150 g for 15 min and the upper layer was recovered to obtain platelet-rich plasma (PRP). The residual blood was centrifuged at 3000 g for 10 min and the supernatant was collected as platelet-poor plasma (PPP). Platelet concentration in the PRP was determined using the Z series Beckman Coulter particle counter (Beckman, Fullerton, Calif.) and adjusted to 250,000 platelets/μL using PPP. 480 μL of PRP was pre-incubated at 37° C. and stirred at 1200 rpm with 10 μL aqueous test compound solution for 1 min prior to induction of aggregation by the addition of 10 μL of aqueous adenosine diphosphate (ADP) solution to adjust the final ADP concentration in the PRP to 1×10^−5 M. The maximal amplitude of aggregation response within 3 min was determined and measured in triplicate using the Chronolog model 490 aggregometer (Chrono-log Corp., Havertown, Pa.). Percent inhibition of aggregation was calculated from the maximum decrease in optical density of the control (addition of water in place of the test compound solution) sample and of the samples containing test compound. The test compound was added to adjust the final concentration to the range 10^−9 to 10^−4 M, and IC50 values were determined by inhibition percentage of aggregation at each concentration.
row,Structure (SMILES),IC50 [nM]
1,"O=C(O)COC[C@H]1CC[C@H](CNC(=O)N(c2ccccc2)c2ccccc2)CC1 [Compound 2, 2-(((1r,4r)-4-((3,3-diphenylureido)methyl)cyclohexyl)methoxy)acetic acid]",73
2,"O=C(O)COC[C@H]1CC[C@@H](COC(=O)N(c2ccccc2)c2cccc(Cl)c2)CC1 [Compound 30, 2-(((1s,4s)-4-(((3-chlorophenyl)(phenyl)carbamoyloxy)methyl)cyclohexyl)methoxy)acetic acid]",210
3,"Cc1ccc(N(C(=O)OC[C@H]2CC[C@H](COCC(=O)O)CC2)c2ccccc2)s1 [Compound 50, 2-(((1r,4r)-4-(((5-methylthiophen-2-yl)(phenyl)carbamoyloxy)methyl)cyclohexyl)methoxy)acetic acid]",12.6
4,"CCOc1ccc(N(C(=O)OC[C@H]2CC[C@H](COCC(=O)O)CC2)c2ccccc2)cc1 [Compound 88, 2-(((1r,4r)-4-(((4-ethoxyphenyl)(phenyl)carbamoyloxy)methyl)cyclohexyl)methoxy)acetic acid]",70

# System: MCT-induced pulmonary arterial hypertension
# Test: Rat monocrotaline (MCT) model of pulmonary arterial hypertension
# Type: in vivo
# Conditions: 30 mg/kg oral gavage twice a day for 21 days; 60 mg/kg MCT s.c.; male Wistar rats
# Procedure: Male Wistar rats (100-150 g at start of study) (Charles River Laboratories, Wilmington, Mass.) were housed two per cage and maintained in a humidity—(40-60%) and temperature—(68-72° F.) controlled facility on a 12 hr:12 hr light/dark cycle (lights on at 6:30 am) with free access to food (Harlan Teklad, Orange Calif., Rodent Diet 8604) and water. Rats were allowed one week of habituation to the animal facility before testing.
# The rat monocrotaline (MCT) model is a standard and well-accepted model of pulmonary arterial hypertension. MCT induces acute pulmonary endothelial damage associated with pulmonary vascular inflammation. […]
# Rats were randomly given a single subcutaneous injection of either 60 mg/kg MCT (Sigma, St. Louis, Mo.) or 0.9% saline (sham) and assigned to receive oral administration of 20% hydroxypropyl beta-cyclodextrin (vehicle) or test compound (30 mg/kg; FIGS. 7 and 8). […] Heart chamber weights were measured on Day 22. […] The ratio of right ventricular (RV) weight to left ventricle plus septum (LV+S) weight (this ratio is indicated as “RV/(LV+S)” in FIGS. 7 and 8) was calculated as an index of the hypertrophic response to the induced pulmonary arterial hypertension and, as such, as an index of a test compound's therapeutic efficacy for pulmonary arterial hypertension.
row,Structure (SMILES),"hypertrophic response, RV/(LV+S)"
1,"O=C(O)COC[C@H]1CC[C@H](COC(=O)N(c2ccccc2)c2cccc(F)c2)CC1 [Compound 23, 2-(((1r,4r)-4-(((3-fluorophenyl)(phenyl)carbamoyloxy)methyl)cyclohexyl)methoxy)acetic acid]",inhibited the hypertrophic response
